Measured values: publication PMC6479814, “Structure-Based Design of Novel Benzimidazole Derivatives as Pin1 Inhibitors” (Molecules, 2019)

Tests used:
PC-3 cells = assay: In vitro anti-proliferative MTT assay; assay type: cell-based, human; conditions: for GI50: Homo sapiens, PC-3 cells, MTT, 96 h; for antiproliferative activity against human prostate cancer PC-3 cells: result in words
Protocol: As for Pin1 was overexpressed in human prostate cancer cells, the antiproliferative activity of these benzimidazole derivatives against PC-3 cells were further evaluated by MTT assay. Meanwhile, the polar surface area (PSA) of these compounds was calculated under the optimal conformation since PSA is the key indicator of membrane permeability.
The tested cells were plated in 96-well microtiter plates with a density of 2,000 cells/well and incubated in a humidified atmosphere with 5% CO2 at 37 °C for 24 h. The cells were then exposed to tested compounds of different concentrations in triplicate. After incubated for 96 h, 50 μL of 3-(4,5-dimethylthiazol-2-yl)-2,5-diphenyltetrazolium bromide (MTT) solution (2 mg/mL) was added to each well and incubated for an additional 4 h. Then the suspernatant was discarded and the fromazan was dissolved in 200 μL of dimethyl sulfoxide (DMSO). The plate was oscillated subtly at room temperature for 10 min before the absorbance was measured at 570 nm by a microplate reader. Cell inhibitory ratio was calculated with the following formula:Inhibitory Rate (%) = [(Acontrol − Atreated)/Acontrol] × 100%(1)
The GI50 was determined as the concentration that caused half inhibition of cell proliferation. All experiments were performed three times independently, and the results were reported presented as the mean.

Pin1 = target: T1, Pin1 (Homo sapiens, UniProt Q13526); assay: Pin1 inhibition, protease-coupled assay; assay type: biochemical; conditions: 10 °C; for inhibition at 10 µM: Pin1, compound at 10 μM; for IC50: Pin1, protease-coupled assay
T1 construct: purchased Sino Biological Inc., Beijing, China
T1 sequence (Q13526 whole entry): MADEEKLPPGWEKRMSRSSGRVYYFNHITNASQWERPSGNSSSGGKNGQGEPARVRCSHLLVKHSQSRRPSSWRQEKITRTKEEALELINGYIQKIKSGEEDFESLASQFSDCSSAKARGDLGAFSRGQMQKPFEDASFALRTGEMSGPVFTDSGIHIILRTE
Protocol: To investigate the Pin1 inhibitory potency of all synthesized compounds, the inhibition ratio at 10 μM or IC50 of all synthesized compounds was determined using protease-coupled assay.
Pin1 inhibitory activities were measured at 10 °C by protease-coupled assay as reported previous. Suc-Ala-Glu-cis-Pro-Phe-4-nitroaniline (Bachem, Bubendorf, Switzerland) in 0.47 mol/L, LiCl/trifluoroethanol was used as the substrate. The assay buffer (860 μL of 35 mM HERES at pH 7.8), Pin1 (20 μL, Bought from Sino Biological Inc., Beijing, China) and target compounds (10 μL of varying comcentrations in DMSO) were pre-equilibtated in the cuvette at 10 °C for 30 min. Then, 150 uL of ice-cooled chymotrypsin (60 mg/mL in 0.001 M/HCl) was added and mixed immediately. Additional substrate (40 μL) was added to start the assay and the reaction was monitored by absorbance at 390 nm for 90 s. For each compound, four concentrations (10 μM, 3.3 μM, 1.1 μM, 0.37 μM) were chosen, and the assay was performed in duplicate. The data was analyzed by Graphpad Prism 6.0.

melting point | GI50 (PC-3 cells) | inhibition at 10 µM (Pin1) | IC50 (Pin1) | SMILES | antiproliferative activity against human prostate cancer PC-3 cells (PC-3 cells)
221 to 222 °C | 17.4 µM | 75% | 1.65 µM | Cc1ccc(NC(=O)CCn2c(/C=C/C(=O)O)nc3ccccc32)cc1 [Compound 6d, (E)-3-(1-(3-Oxo-3-(p-tolylamino)propyl)-1H-benzo[d]imidazol-2-yl)acrylic acid] | moderate antiproliferative activity
215 to 217 °C | > 50 µM | 48% |  | COc1ccc(NC(=O)CCn2c(/C=C/C(=O)O)nc3ccccc32)cc1 [Compound 6e, (E)-3-(1-(3-((4-Methoxyphenyl)amino)-3-oxopropyl)-1H-benzo[d]imidazol-2-yl)acrylic acid] | 
186 to 188 °C | > 50 µM | 79% |  | O=C(CCn1c(-c2nc(C(=O)O)cs2)nc2ccccc21)Nc1ccccc1Br [Compound 13c, 2-(1-(3-((2-Bbromophenyl)amino)-3-oxopropyl)-1H-benzo[d]imidazol-2-yl)thiazole-4-carboxylic acid] | 
204 to 206 °C | > 50 µM | 72% |  | Cc1ccc(NC(=O)CCn2c(-c3nc(C(=O)O)cs3)nc3ccccc32)cc1F [Compound 13j, 2-(1-(3-((3-Fluoro-4-methylphenyl)amino)-3-oxopropyl)-1H-benzo[d]imidazol-2-yl)thiazole-4-carboxylic acid] | 
234 to 236 °C | > 50 µM | 40% |  | O=C(CCn1c(-c2nc(C(=O)O)cs2)nc2ccccc21)Nc1cccc([N+](=O)[O-])c1 [Compound 13f, 2-(1-(3-((3-Nitrophenyl)amino)-3-oxopropyl)-1H-benzo[d]imidazol-2-yl)thiazole-4-carboxylic acid] | 
203 to 205 °C | > 50 µM | 42% |  | COc1ccc(CNC(=O)CCn2c(/C=C/C(=O)O)nc3ccccc32)cc1 [Compound 6l, (E)-3-(1-(3-((4-Methoxybenzyl)amino)-3-oxopropyl)-1H-benzo[d]imidazol-2-yl)acrylic acid] | 
210 to 212 °C | > 50 µM | 87% | 0.89 µM | O=C(CCn1c(-c2nc(C(=O)O)cs2)nc2ccccc21)Nc1cccc(Br)c1 [Compound 13b, 2-(1-(3-((3-Bromophenyl)amino)-3-oxopropyl)-1H-benzo[d]imidazol-2-yl)thiazole-4-carboxylic acid] | 
192 to 194 °C | 14.1 µM | 66% | 1.73 µM | O=C(O)/C=C/c1nc2ccccc2n1CCC(=O)Nc1ccc(Br)cc1 [Compound 6g, (E)-3-(1-(3-((4-Bromophenyl)amino)-3-oxopropyl)-1H-benzo[d]imidazol-2-yl)acrylic acid] | moderate antiproliferative activity
222 to 224 °C | 28.6 µM | 60% |  | Cc1cc(C)c(NC(=O)CCn2c(CCC(=O)O)nc3ccccc32)c(C)c1 [Compound 7c, 3-(1-(3-(Mesitylamino)-3-oxopropyl)-1H-benzo[d]imidazol-2-yl)propanoic acid] | moderate antiproliferative activity
158 to 160 °C | > 50 µM | 54% |  | O=C(O)/C=C/c1nc2ccccc2n1CCC(=O)Nc1ccc(Cl)cc1 [Compound 6f, (E)-3-(1-(3-((4-Chlorophenyl)amino)-3-oxopropyl)-1H-benzo[d]imidazol-2-yl)acrylic acid] | 
128 to 130 °C | > 50 µM | 28% |  | O=C(O)/C=C/c1nc2ccccc2n1CCC(=O)N1CCCCC1 [Compound 6a, (E)-3-(1-(3-oxo-3-(piperidin-1-yl)propyl)-1H-benzo[d]imidazol-2-yl)acrylic acid] | 
209 to 210 °C | 9.89 µM | 90% | 0.64 µM | O=C(O)/C=C/c1nc2ccccc2n1CCC(=O)Nc1cccc(Br)c1 [Compound 6h, (E)-3-(1-(3-((3-Bromophenyl)amino)-3-oxopropyl)-1H-benzo[d]imidazol-2-yl)acrylic acid] | moderate antiproliferative activity
208 to 210 °C | > 50 µM | 79% |  | COc1cc(NC(=O)CCn2c(-c3nc(C(=O)O)cs3)nc3ccccc32)cc(OC)c1 [Compound 13e, 2-(1-(3-((3,5-Dimethoxyphenyl)amino)-3-oxopropyl)-1H-benzo[d]imidazol-2-yl)thiazole-4-carboxylic acid] | 
152 to 154 °C | 20.3 µM | 71% | 1.87 µM | O=C(O)/C=C/c1nc2ccccc2n1CCC(=O)Nc1cc(Cl)cc(Cl)c1 [Compound 6n, (E)-3-(1-(3-((3,5-Dichlorophenyl)amino)-3-oxopropyl)-1H-benzo[d]imidazol-2-yl)acrylic acid] | moderate antiproliferative activity
207 to 209 °C | > 50 µM | 27% |  | O=C(O)/C=C/c1nc2ccccc2n1CCC(=O)N1CCOCC1 [Compound 6b, (E)-3-(1-(3-Morpholino-3-oxopropyl)-1H-benzo[d]imidazol-2-yl) acrylic acid] | 
226 to 228 °C | > 50 µM | 73% |  | O=C(CCn1c(-c2nc(C(=O)O)cs2)nc2ccccc21)Nc1ccccc1 [Compound 13a, 2-(1-(3-Oxo-3-(phenylamino)propyl)-1H-benzo[d]imidazol-2-yl)thiazole-4-carboxylic acid] | 
66 to 68 °C | > 50 µM | 31% |  | O=C(O)CCc1nc2ccccc2n1CCC(=O)Nc1ccc(Cl)cc1 [Compound 7b, 3-(1-(3-((4-Chlorophenyl)amino)-3-oxopropyl)-1H-benzo[d]imidazol-2-yl)propanoic acid] | 
275 to 278 °C | 11.1 µM | 84% | 0.97 µM | Cc1cc(C)c(NC(=O)CCn2c(/C=C/C(=O)O)nc3ccccc32)c(C)c1 [Compound 6o, (E)-3-(1-(3-((2,4,6-Trimethylphenyl)amino)-3-oxopropyl)-1H-benzo[d]imidazol-2-yl)acrylic acid] | moderate antiproliferative activity
203 to 205 °C | > 50 µM | 62% |  | O=C(O)/C=C/c1nc2ccccc2n1CCC(=O)NCCc1ccc(Br)cc1 [Compound 6k, (E)-3-(1-(3-((4-Bromophenethyl)amino)-3-oxopropyl)-1H-benzo[d]imidazol-2-yl)acrylic acid] | 
210 to 212 °C | > 50 µM | 59% |  | O=C(O)/C=C/c1nc2ccccc2n1CCC(=O)NCc1ccc(Br)cc1 [Compound 6j, (E)-3-(1-(3-((4-Bromobenzyl)amino)-3-oxopropyl)-1H-benzo[d]imidazol-2-yl)acrylic acid] | 
66 to 68 °C | > 50 µM | 60% |  | Cc1ccc(NC(=O)CCn2c(CCC(=O)O)nc3ccccc32)cc1 [Compound 7a, 3-(1-(3-Oxo-3-(p-tolylamino)propyl)-1H-benzo[d]imidazol-2-yl)propanoic acid] | 
176 to 178 °C | > 50 µM | 81% | 1.15 µM | O=C(CCn1c(-c2nc(C(=O)O)cs2)nc2ccccc21)Nc1ccc(C(F)(F)F)cc1 [Compound 13h, 2-(1-(3-Oxo-3-((4-(trifluoromethyl)phenyl)amino)propyl)-1H-benzo[d]imidazol-2-yl)thiazole-4-carboxylic acid] | 
219 to 220 °C | > 50 µM | 49% |  | COc1ccc(CCNC(=O)CCn2c(/C=C/C(=O)O)nc3ccccc32)cc1 [Compound 6m, (E)-3-(1-(3-((4-Methoxyphenethyl)amino)-3-oxopropyl)-1H-benzo[d]imidazol-2-yl)acrylic acid] | 

SMILES | melting point | GI50 (PC-3 cells) | inhibition at 10 µM (Pin1) | IC50 (Pin1) | antiproliferative activity against human prostate cancer PC-3 cells (PC-3 cells)
O=C1C=CC(=O)c2c(O)cccc21 [Juglone, reference compound] |  | 4.89 µM |  | 10 µM | 
